In general, IC50 refers to the concentration that inhibits the measured activity by half.

Peptide text beside a SMILES is read from it. * marks the point of attachment. X1 = Cc1c(C)c2c(c(C)c1OC(=O)CCC(=O)*)CCC(C)(CCCC(C)CCCC(C)CCCC(C)C)O2; Stearoyl = CCCCCCCCCCCCCCCCCC(=O)*; Palmitoyl = CCCCCCCCCCCCCCCC(=O)*

Series [1] can be described thus: circular dichroism secondary structure analysis of the inhibitors themselves. The note with it: for secondary structure of the inhibitor itself (in words): 10 μM, 20 μM and 40 μM in PBS. Format: physicochemical. As for the experimental part: (§1) The circular dichroism spectrophotometer was Jasco-815 by JASCO Inc., and the assay method was referred to the papers published by the inventors (see the References 18 and 30 listed in the Background Art). […] The N39 and an inhibitor were separately dissolved in a phosphate buffered saline (PBS) to prepare a PBS solution (pH 7.2) of a concentration of 20 μM. The N39 was mixed with an inhibitor at a volume ratio of 1:1 (final concentration of 10 μM for each), the mixed sample was placed at 37° C. for 30 minutes to fully react, and then the helix content and Tm value of the resultant complex were measured by the circular dichroism spectrophotometer. The scan wavelength range of the device was 195-260 nm with a wavelength interval of 1 nm, and the values measured by scanning for three times were averaged. Based on the CD signals, the interaction between the polypeptides and the helix content were determined. Then, the sample for CD signal measurement was transferred to the temperature scanning sample cell, the program of the CD device was set to temperature scanning with a detection wavelength of 220 nm and scanning range of 20-98° C., and the program scan was performed to obtain the curve of the CD signals vs temperature, based on which the Tm value was calculated. Based on the Tm value, the stability of the formed helical structure of the inhibitor and N39 was judged.
For easy analysis, the α-helix content and the Tm value of the inhibitors were measured at concentrations of 10 μM, 20 μM, and 40 μM (PBS solution), respectively.

A further series deals with HIV-1 strain JRCSF. Format: cell-based. How it is done: (§2) Inhibition rate (%) and IC50 value were calculated.
Series [2] deals with HIV-2 strain ROD (infectious). Description: inhibition of HIV-2. Format: cell-based. The note with it: HIV-2 ROD. As for the experimental part: as §2
(§3) In order to further reflect the antiviral advantages of the potent lipopeptides of the present invention, their inhibitory activity against HIV-2 and SIV was determined in the example. The methods of antiviral activity assays used were described in the literatures published by the present inventors (see the References 13 and 30 listed in the Background Art). The molecular cloning plasmid pROD of the HIV-2 strain ROD (HIV-2ROD) was kindly provided by Professor Nuno Taveira from the University of Lisbon, Portugal, and the plasmids expressing the SIV strain SIVpbj (SIVPBJ) and SIV239 envelope proteins (pSIVpbj-Env and pSIV239, respectively) were kindly provided by Professor Xu Jianqing from the Fudan University. The preparation of the infectious ROD was the same as that of the infectious JRCSF in the above section 2.1, and the pseudoviruses SIVpbj and SIV239 were prepared by a method same as that described in the above Examples 2 and 3.

In series [3] the test system is SIV pseudoviruses SIVpbj and SIV239. Put plainly: inhibition of SIV pseudoviruses. The format is cell-based. As for the experimental part:
(§4) The supernatant was discarded from the wells. […] Inhibition rate (%) and IC50 value were calculated.
as §3

Series [4] has as its system HIV-1 strain NL4-3 pseudovirus (D36G mutant). Format: cell-based. As for the experimental part: as §4
In series [5] the target is N39 (NHR-derived polypeptide of gp41) (Human immunodeficiency virus type 1 group M subtype B, UniProt P04578). The format is binding, HIV-1. The note with it: 10 μM each, PBS pH 7.2. How it is done:
as §1

The next series has as its system HIV-1. The note with it: cell fusion, entry and replication; compared with parent or control peptide. The source says:
HIV-1 pseudovirus-mediated cell entry inhibition assay: basic steps included: (1) Preparation of HIV-1 pseudovirus: the 293T cells were co-transfected with a plasmid expressing the envelope protein (Env) of HIV-1 strain NL4-3 (i.e., a recombinant expression plasmid obtained by inserting the gene encoding the envelope protein (ENV) of the D36G mutant of the HIV-1 strain NL4-3 in the Table 2 of the Reference 14 listed in the Background Art into the vector pcDNA3.1(−)) and the HIV-1 backbone plasmid pSG3Δenv (provided by the AIDS Reagent Program of National Institutes of Health (NIH), catalog number: 11051) by using a cell transfection reagent, incubated in a cell incubator of 37° C. and 5% CO2 for 6 hours, and then the medium was changed, and the cells were further incubated for 48 hours. The cell culture supernatant containing pseudovirus particles was pipetted and filtered with a 0.45 μm filter to collect the supernatant, then 20% fetal bovine serum (FBS) was added thereto, the final solution was transferred to a polypropylene tube, and stored at −80° C. for ready for use or directly subjected to virus titration. (2) Titration of HIV-1 pseudovirus: the viruses were diluted by 5 folds in a 96-well plate, and 4 replicate wells with 8 gradients were set to a final volume of 100 microliters. The TZM-b1 cells were trypsinized and counted, and the cells were diluted to 1×10^5 cells/ml with DMEM complete medium; 100 μl of cells dilution (containing 15 μg/ml DEAE-dextran) per well were added and cultured at 37° C. and 5% CO2 for 48 hours. The 96-well plate was then taken from the cell culture incubator. The supernatant was discarded from the wells. To each well, 30 μl of a cell lysate was added, and after 10 minutes, 100 μl of a luciferase detection reagent was added. 100 μl of liquid was pipetted from each well and added to a corresponding 96-well white plate, and the luminescence values were read by a microplate photometer. The virus titer was calculated by the Reed-Muench method. […]

Chain of N39 (NHR-derived polypeptide of gp41) (P04578 528-566): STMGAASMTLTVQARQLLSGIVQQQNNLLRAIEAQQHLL

For the compound `CCCCCCCCCCCCCCCC(=O)NCCCC[C@H](NC(=O)[C@H](CCC(=O)O)NC(=O)[C@H](CC(C)C)NC(=O)[C@H](CCCCN)NC(=O)[C@H](CCCCN)NC(=O)[C@H](CC(C)C)NC(=O)[C@H](CCC(=O)O)NC(=O)[C@H](CCC(=O)O)NC(=O)[C@H](CCC(=O)O)NC(=O)[C@H](CC(N)=O)NC(=O)[C@H](CCCCN)NC(=O)[C@H](CCCCN)NC(=O)[C@H](CCC(N)=O)NC(=O)[C@H](CCC(N)=O)NC(=O)[C@H](CCC(=O)O)NC(=O)[C@H](CCC(=O)O)NC(=O)[C@H](C)NC(=O)[C@H](CCCCN)NC(=O)[C@H](CCCCN)NC(=O)[C@H](CC(C)C)NC(=O)[C@H](CC(C)C)NC(=O)[C@H](CCC(=O)O)NC(=O)[C@H](CCC(=O)O)NC(=O)[C@@H](NC(=O)[C@H](CCCCN)NC(=O)[C@H](CCC(N)=O)NC(=O)[C@H](CCC(=O)O)NC(=O)[C@H](Cc1c[nH]c2ccccc12)NC(C)=O)[C@@H](C)CC)C(N)=O` [LP-52] (Ac-WEQKIEELLKKAEEQQKKNEEELKKLEK(Palmitoyl)-NH2), the “secondary structure of the inhibitor itself (in words)” value in series [1] was “distinct helical structure”. Further, the “inhibitory activity as folds of that of T-20” value in the series on HIV-1 strain JRCSF (JRCSF replication, relative to T-20) is 1038 folds; in series [4] (NL4-3 pseudovirus entry, relative to T-20), 2353 folds. The “inhibitory activity further improved, folds” value in the series with HIV-1 strain JRCSF (replicative JRCSF virus, relative to LP-50) was approximately 5 folds; in series [4] (NL4-3 pseudovirus, relative to LP-50), “about 2 folds”. The “inhibitory activity against HIV-2 (in words)” value in series [2] was “extremely potent inhibitory activity”. Also, in series [3], the “inhibitory activity against SIV (in words)” value is “extremely potent inhibitory activity”. The “Tm value of the complex with N39” value in series [5] was 79.1 °C. Moreover, the “helix content of the complex with N39” value in series [5] was determined as 63.8%.

On to `CC[C@H](C)[C@H](NC(=O)[C@H](CCCCN)NC(=O)[C@H](CCC(N)=O)NC(=O)[C@H](CCC(=O)O)NC(=O)[C@H](Cc1c[nH]c2ccccc12)NC(C)=O)C(=O)N[C@@H](CCC(=O)O)C(=O)N[C@@H](CCC(=O)O)C(=O)N[C@@H](CC(C)C)C(=O)N[C@@H](CC(C)C)C(=O)N[C@@H](CCCCN)C(=O)N[C@@H](CCCCN)C(=O)N[C@@H](C)C(=O)N[C@@H](CCC(=O)O)C(=O)N[C@@H](CCC(=O)O)C(=O)N[C@@H](CCC(N)=O)C(=O)N[C@@H](CCC(N)=O)C(=O)N[C@@H](CCCCN)C(=O)N[C@@H](CCCCN)C(=O)N[C@@H](CC(N)=O)C(=O)N[C@@H](CCC(=O)O)C(=O)N[C@@H](CCC(=O)O)C(=O)N[C@@H](CCC(=O)O)C(=O)N[C@@H](CC(C)C)C(=O)N[C@@H](CCCCN)C(=O)N[C@@H](CCCCN)C(=O)N[C@@H](CC(C)C)C(=O)N[C@@H](CCC(=O)O)C(=O)N[C@@H](CCCCNC(=O)CCC(=O)Oc1c(C)c(C)c2c(c1C)CCC(C)(CCCC(C)CCCC(C)CCCC(C)C)O2)C(N)=O` (some centres unmarked) [LP-85] (Ac-WEQKIEELLKKAEEQQKKNEEELKKLEK(X1)-NH2), for which, in series [2], the “inhibitory activity against HIV-2 (in words)” value was “extremely potent inhibitory activity”. The “antiviral activity (in words)” value in the series on HIV-1 is listed as “strong antiviral effects”. Also, the “inhibitory activity against SIV (in words)” value in series [3] was “extremely potent inhibitory activity”. For the same compound, the “interaction / binding to N39 (in words)” value in series [5] was “strong helical binding stability”.

Take `CCCCCCCCCCCCCCCCCC(=O)NCCCC[C@H](NC(=O)[C@H](CCC(=O)O)NC(=O)[C@H](CC(C)C)NC(=O)[C@H](CCCCN)NC(=O)[C@H](CCCCN)NC(=O)[C@H](CC(C)C)NC(=O)[C@H](CCC(=O)O)NC(=O)[C@H](CCC(=O)O)NC(=O)[C@H](CCC(=O)O)NC(=O)[C@H](CC(N)=O)NC(=O)[C@H](CCCCN)NC(=O)[C@H](CCCCN)NC(=O)[C@H](CCC(N)=O)NC(=O)[C@H](CCC(N)=O)NC(=O)[C@H](CCC(=O)O)NC(=O)[C@H](CCC(=O)O)NC(=O)[C@H](C)NC(=O)[C@H](CCCCN)NC(=O)[C@H](CCCCN)NC(=O)[C@H](CC(C)C)NC(=O)[C@H](CC(C)C)NC(=O)[C@H](CCC(=O)O)NC(=O)[C@H](CCC(=O)O)NC(=O)[C@@H](NC(=O)[C@H](CCCCN)NC(=O)[C@H](CCC(N)=O)NC(=O)[C@H](CCC(=O)O)NC(=O)[C@H](Cc1c[nH]c2ccccc12)NC(C)=O)[C@@H](C)CC)C(N)=O` [LP-80] (Ac-WEQKIEELLKKAEEQQKKNEEELKKLEK(Stearoyl)-NH2): in series [1], the “secondary structure of the inhibitor itself (in words)” value was “distinct helical structure”. Also, the “helix content and Tm value of the inhibitor itself (in words)” value in series [1] (among the four potent lipopeptides) was “the higher helix content and Tm value”. The IC50 worked out at 2 pM with HIV-1 strain JRCSF (Replication of JRCSF, read-out: IC50 for inhibiting replicative virus) and 2 pM in series [4] (Entry of NL4-3 (D36G), read-out: IC50 for inhibiting pseudovirus). The “inhibitory activity against JRCSF replication (in words)” value with HIV-1 strain JRCSF (compared with LP-52) is recorded as “even greater than that of C16-modified LP-52”. The “inhibitory activity against HIV-2 (in words)” value in series [2] was “extremely potent inhibitory activity”. The “inhibitory activity against SIV (in words)” value in series [3] is recorded as “extremely potent inhibitory activity”. Further, the “inhibitory activity against NL4-3 entry (in words)” value in series [4] (compared with LP-52) is given as “even greater than that of C16-modified LP-52”. Moreover, the “Tm value of the complex with N39” value in series [5] was found to be 79 °C.

Consider `CCCCCCCCCCCCCCCCCC(=O)NCCCC[C@H](NC(=O)[C@H](CCC(=O)O)NC(=O)[C@H](CC(C)C)NC(=O)[C@H](CCCCN)NC(=O)[C@H](CCCCN)NC(=O)[C@H](CC(C)C)NC(=O)[C@H](CCC(=O)O)NC(=O)[C@H](CCC(=O)O)NC(=O)[C@H](CCC(=O)O)NC(=O)[C@H](CC(N)=O)NC(=O)[C@H](CCCCN)NC(=O)[C@H](CCCCN)NC(=O)[C@H](CCC(N)=O)NC(=O)[C@H](CCC(N)=O)NC(=O)[C@H](CCC(=O)O)NC(=O)[C@H](CCC(=O)O)NC(=O)[C@H](C)NC(=O)[C@H](CCCCN)NC(=O)[C@H](CCCCN)NC(=O)[C@H](CC(C)C)NC(=O)[C@H](CC(C)C)NC(=O)[C@H](CCC(=O)O)NC(=O)[C@H](CCC(=O)O)NC(=O)[C@@H](NC(C)=O)[C@@H](C)CC)C(N)=O` [LP-90] (Ac-IEELLKKAEEQQKKNEEELKKLEK(Stearoyl)-NH2), for which the “inhibitory activity against HIV-2 (in words)” value in series [2] is “extremely potent inhibitory activity”. For the same compound, the “antiviral activity (in words)” value in the series on HIV-1 is “potent antiviral activity”. In addition, the “inhibitory activity against SIV (in words)” value in series [3] is given as “extremely potent inhibitory activity”. For the same compound, the “Tm value of the complex with N39” value in series [5] was determined as 71.1 °C.

(Values after patent US11680086B2, “Lipopeptide for potently inhibiting HIV, derivative thereof, pharmaceutical composition thereof and use thereof” (Institute of Pathogen Biology, Chinese Academy of Medical …, priority 2017, dated 2023).)
